Reference: ChEMBL document CHEMBL3046616, “Design, synthesis, and biological activities of milbemycin analogues” (2011)
In brackets after ≈: the same amount, converted by molar mass.

What was measured:
Type in all cases: functional
Tetranychus cinnabarinus = assay: Insecticidal activity against Tetranychus cinnabarinus (carmine spider mite) […] assessed as larvicidal activity at 0.006 mg/L after 48 hr
Aphis fabae [1] = assay: Insecticidal activity against Aphis fabae (black bean aphid) infested soybean tender shoots measured 48 hr post compound dose by modified FAO dip method; design: concentration or dose not given beside the values
Mythimna separata [2] = assay: Insecticidal activity against Mythimna separata (Oriental armyworm) fourth-instar larvae reared compound pre-treated corn leaves assessed as insect mortality at 2.5 mg/L measured 2 days post compound dose
Mythimna separata [3] = assay: Insecticidal activity against Mythimna separata (Oriental armyworm) fourth-instar larvae reared compound pre-treated corn leaves assessed as insect mortality at 0.625 mg/L measured 2 days post compound dose
Mythimna separata [4] = assay: Insecticidal activity against Mythimna separata (Oriental armyworm) fourth-instar larvae reared compound pre-treated corn leaves assessed as insect mortality at 10 mg/L measured 2 days post compound dose
Aphis fabae [5] = assay: Insecticidal activity against Aphis fabae (black bean aphid) infested soybean tender shoots at 2.5 mg/L measured 48 hr post compound dose by modified FAO dip method
Aphis fabae [6] = assay: Insecticidal activity against Aphis fabae (black bean aphid) infested soybean tender shoots at 0.625 mg/L measured 48 hr post compound dose by modified FAO dip method
Aphis fabae [7] = assay: Insecticidal activity against Aphis fabae (black bean aphid) infested soybean tender shoots at 10 mg/L measured 48 hr post compound dose by modified FAO dip method
Mythimna separata [8] = assay: Insecticidal activity against Mythimna separata (Oriental armyworm) fourth-instar larvae reared compound pre-treated corn leaves assessed as insect mortality at 0.5 mg/L measured 2 days post compound dose
Aphis fabae [9] = assay: Insecticidal activity against Aphis fabae (black bean aphid) infested soybean tender shoots at 0.25 mg/L measured 48 hr post compound dose by modified FAO dip method
Aphis fabae [10] = assay: Insecticidal activity against Aphis fabae (black bean aphid) infested soybean tender shoots at 1 mg/L measured 48 hr post compound dose by modified FAO dip method
Mythimna separata [11] = assay: Insecticidal activity against fourth-instar larvae of Mythimna separata (Oriental armyworm) reared on compound pre-treated corn leaves assessed as insect mortality at 0.03125 mg/L measured 2 days post compound dose
Mythimna separata [12] = assay: Insecticidal activity against Mythimna separata (Oriental armyworm) fourth-instar larvae reared compound pre-treated corn leaves assessed as insect mortality measured 2 days post compound dose
Mythimna separata [13] = assay: Insecticidal activity against Mythimna separata (Oriental armyworm) fourth-instar larvae reared compound pre-treated corn leaves assessed as insect mortality at 1 mg/L measured 2 days post compound dose
Aphis fabae [14] = assay: Insecticidal activity against Aphis fabae (black bean aphid) infested soybean tender shoots at 0.125 mg/L measured 48 hr post compound dose by modified FAO dip method
Mythimna separata [15] = assay: Insecticidal activity against Mythimna separata (Oriental armyworm) fourth-instar larvae reared compound pre-treated corn leaves assessed as insect mortality at 0.25 mg/L measured 2 days post compound dose
Mythimna separata [16] = assay: Insecticidal activity against fourth-instar larvae of Mythimna separata (Oriental armyworm) reared on compound pre-treated corn leaves assessed as insect mortality at 0.125 mg/L measured 2 days post compound dose
Mythimna separata [17] = assay: Insecticidal activity against fourth-instar larvae of Mythimna separata (Oriental armyworm) reared on compound pre-treated corn leaves assessed as insect mortality at 0.0625 mg/L measured 2 days post compound dose
Aphis fabae [18] = assay: Insecticidal activity against Aphis fabae (black bean aphid infested soybean tender shoots measured 48 hr post compound dose by modified FAO dip method; settings: Aphis fabae, 48 h
Aphis fabae [19] = assay: Insecticidal activity against Aphis fabae (black bean aphid) infested soybean tender shoots at 0.5 mg/L measured 48 hr post compound dose by modified FAO dip method
Aphis fabae [20] = assay: Insecticidal activity against Aphis fabae (black bean aphid) infested soybean tender shoots at 0.0625 mg/L measured 48 hr post compound dose by modified FAO dip method
Mythimna separata [21] = assay: Insecticidal activity against Mythimna separata (Oriental armyworm) fourth-instar larvae reared compound pre-treated corn leaves assessed as insect mortality at 200 mg/L measured 2 days post compound dose

SMILES | mortality at 0.006 µg/mL (Tetranychus cinnabarinus) | mortality (Aphis fabae [1]) | mortality at 2.5 µg/mL (Mythimna separata [2]) | mortality at 0.625 µg/mL (Mythimna separata [3]) | mortality at 10 µg/mL (Mythimna separata [4]) | mortality at 2.5 µg/mL (Aphis fabae [5]) | mortality at 0.625 µg/mL (Aphis fabae [6]) | mortality at 10 µg/mL (Aphis fabae [7]) | mortality at 200 µg/mL (Mythimna separata [21]) | other results
CCC(C)[C@H]1O[C@]2(CC[C@@H]1C)C[C@@H]1C[C@@H](C/C=C(\C)[C@@H](O[C@H]3C[C@H](OC)[C@@H](OC(=O)c4ccc(Cl)cc4)[C@H](C)O3)[C@@H](C)/C=C/C=C3\CO[C@@H]4[C@H](O)C(C)=C[C@@H](C(=O)O1)[C@]34O)O2 (stereo partly specified) | 32.3% | 100% | 16.7% | 0% | 93.9% |  |  |  |  | 
CCC(C)[C@H]1O[C@]2(CC[C@@H]1C)C[C@@H]1C[C@@H](C/C=C(\C)[C@@H](OC(=O)c3ccc(Cl)cc3)[C@@H](C)/C=C/C=C3\CO[C@@H]4[C@H](O)C(C)=C[C@@H](C(=O)O1)[C@]34O)O2 (stereo partly specified) | 26.9% | 87.9% | 24.9% | 0% | 100% |  |  |  |  | 
CCC(C)[C@H]1O[C@]2(CC[C@@H]1C)C[C@@H]1C[C@@H](C/C=C(\C)[C@@H](O[C@H]3C[C@H](OC)[C@@H](OC(=O)CC(C)(C)C)[C@H](C)O3)[C@@H](C)/C=C/C=C3\CO[C@@H]4[C@H](O)C(C)=C[C@@H](C(=O)O1)[C@]34O)O2 (stereo partly specified) | 34.2% |  | 51.2% | 0% | 88.6% | 30.2% | 0% | 80.2% |  | 
CCC(C)[C@H]1O[C@]2(CC[C@@H]1C)C[C@@H]1C[C@@H](C/C=C(\C)[C@@H](O[C@H]3C[C@H](OC)[C@@H](OC(=O)/C(=N\OC)c4ccccc4)[C@H](C)O3)[C@@H](C)/C=C/C=C3\CO[C@@H]4[C@H](O)C(C)=C[C@@H](C(=O)O1)[C@]34O)O2 (stereo partly specified) | 38.7% |  |  |  |  |  |  |  |  | mortality at 0.5 µg/mL (Mythimna separata [8]): 80%; mortality at 0.25 µg/mL (Aphis fabae [9]): 34.2%; mortality at 1 µg/mL (Aphis fabae [10]): 100%; mortality at 0.03125 µg/mL (Mythimna separata [11]): 0%; LC50 (Mythimna separata [12]): 0.35 µg/mL (≈ 0.392 µM); mortality at 1 µg/mL (Mythimna separata [13]): 100%; mortality at 0.125 µg/mL (Aphis fabae [14]): 3.3%; mortality at 0.25 µg/mL (Mythimna separata [15]): 30.2%; mortality at 0.125 µg/mL (Mythimna separata [16]): 6.3%; mortality at 0.0625 µg/mL (Mythimna separata [17]): 0%; LC50 (Aphis fabae [18]): 0.12 µg/mL (≈ 0.135 µM); mortality at 0.5 µg/mL (Aphis fabae [19]): 70%; mortality at 0.0625 µg/mL (Aphis fabae [20]): 0%
CCC(C)[C@H]1O[C@]2(CC[C@@H]1C)C[C@@H]1C[C@@H](C/C=C(\C)[C@@H](O[C@H]3C[C@H](OC)[C@@H](OC(=O)C(C)(C)CC)[C@H](C)O3)[C@@H](C)/C=C/C=C3\CO[C@@H]4[C@H](O)C(C)=C[C@@H](C(=O)O1)[C@]34O)O2 (stereo partly specified) | 39.6% |  | 83.6% | 0% |  | 100% | 89.1% |  |  | 
CCC(C)[C@H]1O[C@]2(CC[C@@H]1C)C[C@@H]1C[C@@H](C/C=C(\C)[C@@H](OC(=O)c3cc(F)c(Cl)nc3Cl)[C@@H](C)/C=C/C=C3\CO[C@@H]4[C@H](O)C(C)=C[C@@H](C(=O)O1)[C@]34O)O2 (stereo partly specified) | 7.7% |  |  |  |  | 38.2% | 8.3% | 66.9% | 50.9% | 
CCC(C)[C@H]1O[C@]2(CC[C@@H]1C)C[C@@H]1C[C@@H](C/C=C(\C)[C@@H](OC(=O)c3ccccc3OC)[C@@H](C)/C=C/C=C3\CO[C@@H]4[C@H](O)C(C)=C[C@@H](C(=O)O1)[C@]34O)O2 (stereo partly specified) | 19.5% | 68.6% | 77.3% | 19.7% | 97% |  |  |  |  | 
CCC(C)[C@H]1O[C@]2(CC[C@@H]1C)C[C@@H]1C[C@@H](C/C=C(\C)[C@@H](OC(=O)Nc3cccc(C)c3)[C@@H](C)/C=C/C=C3\CO[C@@H]4[C@H](O)C(C)=C[C@@H](C(=O)O1)[C@]34O)O2 (stereo partly specified) | 56.6% |  | 76.7% | 43.2% | 98.6% | 98.9% | 86.1% | 100% |  | 
CCC(C)[C@H]1O[C@]2(CC[C@@H]1C)C[C@@H]1C[C@@H](C/C=C(\C)[C@@H](O[C@H]3C[C@H](OC)[C@@H](OC(=O)c4ccc(F)cc4)[C@H](C)O3)[C@@H](C)/C=C/C=C3\CO[C@@H]4[C@H](O)C(C)=C[C@@H](C(=O)O1)[C@]34O)O2 (stereo partly specified) | 9.9% |  | 16.7% | 0% | 55.8% | 100% | 97.1% | 100% |  | 
CCC(C)[C@H]1O[C@]2(CC[C@@H]1C)C[C@@H]1C[C@@H](C/C=C(\C)[C@@H](O[C@H]3C[C@H](OC)[C@@H](OC(=O)c4ccccc4)[C@H](C)O3)[C@@H](C)/C=C/C=C3\CO[C@@H]4[C@H](O)C(C)=C[C@@H](C(=O)O1)[C@]34O)O2 (stereo partly specified) | 24.8% |  | 100% | 38.8% | 100% | 100% | 86.3% | 100% |  | 
CCC(C)[C@H]1O[C@]2(CC[C@@H]1C)C[C@@H]1C[C@@H](C/C=C(\C)[C@@H](OC(=O)c3ccc(OC)cc3)[C@@H](C)/C=C/C=C3\CO[C@@H]4[C@H](O)C(C)=C[C@@H](C(=O)O1)[C@]34O)O2 (stereo partly specified) | 34.8% | 75.2% |  |  |  |  |  |  | 100% | 
CCC(C)[C@H]1O[C@]2(CC[C@@H]1C)C[C@@H]1C[C@@H](C/C=C(\C)[C@@H](O[C@H]3C[C@H](OC)[C@@H](OC(=O)c4cc(F)c(Cl)nc4Cl)[C@H](C)O3)[C@@H](C)/C=C/C=C3\CO[C@@H]4[C@H](O)C(C)=C[C@@H](C(=O)O1)[C@]34O)O2 (stereo partly specified) | 16.5% | 88.2% |  |  |  |  |  |  | 0% | 
CCC(C)[C@H]1O[C@]2(CC[C@@H]1C)C[C@@H]1C[C@@H](C/C=C(\C)[C@@H](OC(=O)C3C(C=C(Cl)Cl)C3(C)C)[C@@H](C)/C=C/C=C3\CO[C@@H]4[C@H](O)C(C)=C[C@@H](C(=O)O1)[C@]34O)O2 (stereo partly specified) | 31.7% | 87.9% | 6.4% | 3.3% | 6.7% |  |  |  |  | 
CCC(C)[C@H]1O[C@]2(CC[C@@H]1C)C[C@@H]1C[C@@H](C/C=C(\C)[C@@H](O[C@H]3C[C@H](OC)[C@@H](OC(=O)c4ccc(F)cc4)[C@H](C)O3)[C@@H](C)/C=C/C=C3\CO[C@@H]4/C(=N/OC)C(C)=C[C@@H](C(=O)O1)[C@]34O)O2 (stereo partly specified) | 11.1% | 11.2% |  |  |  |  |  |  | 0% | 
CCC(C)[C@H]1O[C@]2(CC[C@@H]1C)C[C@@H]1C[C@@H](C/C=C(\C)[C@@H](O[C@H]3C[C@H](OC)[C@@H](OC(=O)Nc4cccc(C)c4)[C@H](C)O3)[C@@H](C)/C=C/C=C3\CO[C@@H]4[C@H](O)C(C)=C[C@@H](C(=O)O1)[C@]34O)O2 (stereo partly specified) | 49.2% |  | 98.6% | 56.3% | 100% | 100% | 88.5% | 100% |  | 
CCC(C)[C@H]1O[C@]2(CC[C@@H]1C)C[C@@H]1C[C@@H](C/C=C(\C)[C@@H](OC(=O)Nc3ccccc3)[C@@H](C)/C=C/C=C3\CO[C@@H]4[C@H](O)C(C)=C[C@@H](C(=O)O1)[C@]34O)O2 (stereo partly specified) | 55.2% | 96.8% |  |  |  |  |  |  | 100% | 
